Active and inactive are the calls of the source. The calls are words filed in the database; no cut-off is given here.
Key:
A549 = experiment: Cytotoxicity against human A549 cells assessed as reduction in cell viability after 48 hrs by MTT assay; format: functional, cell-based; settings: A549, 48 h
MCF7 = experiment: Cytotoxicity against human MCF7 cells assessed as reduction in cell viability after 48 hrs by MTT assay; format: functional, cell-based; settings: MCF7, 48 h
SMMC-7721 = experiment: Cytotoxicity against human SMMC7721 cells assessed as reduction in cell viability after 48 hrs by MTT assay; format: functional, cell-based; settings: SMMC-7721, 48 h
SW480 = experiment: Cytotoxicity against human SW480 cells assessed as reduction in cell viability after 48 hrs by MTT assay; format: functional, cell-based; settings: SW480, 48 h
HL-60 = experiment: Cytotoxicity against human HL60 cells assessed as reduction in cell viability after 48 hrs by MTT assay; format: functional, cell-based; settings: HL-60, 48 h
[1] = Therapeutic index, ratio of CC50 for human Huh7.5 cells to EC50 for Hepatitis C virus; format: toxicity; settings: read-out: Ratio CC50/EC50
Hepatitis C virus = experiment: Antiviral activity against HCV infected in human Huh7.5 cells assessed as decrease in viral RNA level after 72 hrs by RT-PCR method; format: functional, organism-based; settings: Hepacivirus hominis

| Compound | IC50 (A549) [µM] | IC50 (MCF7) [µM] | IC50 (SMMC-7721) [µM] | IC50 (SW480) [µM] | IC50 (HL-60) [µM] | selectivity ratio [1] | Activity (Hepatitis C virus) |
| --- | --- | --- | --- | --- | --- | --- | --- |
| C1C[C@H]2CC[C@H]3N4CCCC[C@H]4[C@@H]4CCCN5C[C@@H](C1)[C@H]2N3[C@@H]45 | > 10 | > 10 | > 10 | > 10 | > 10 | > 12 | Active |
| N#C[C@@H]1N2CCC[C@H]3[C@@H]4CCCCN4[C@@H]4CC[C@H]5CCC[C@]1(O)[C@@H]5N4[C@@H]32 | > 10 | > 10 | > 10 | > 10 | > 10 | – | – |
| O=C1[C@H]2CCC[C@H]3CC[C@H]4N5CCCC[C@H]5[C@@H]5CCCN1[C@H]5N4[C@@H]32 | > 10 | > 10 | > 10 | > 10 | > 10 | > 11 | Active |

— ChEMBL document CHEMBL4431304, “Myritonines A-C, Alkaloids from Myrioneuron tonkinensis Based on a Novel Hexacyclic Skeleton” (J Nat Prod, 2016)
